{
  "source": "patent US20160175335A1",
  "about": "“ANTIFUNGAL COMBINATION THERAPY OF TAVABOROLE AND EFINACONAZOLE” (priority 2014, published 2016)",
  "origin": "cited, not measured here",
  "test_system": "dermatophytes, yeasts and non-dermatophyte molds",
  "conditions": "against dermatophytes",
  "data": [
    {"smiles": "C=C1CCN([C@H](C)[C@](O)(Cn2cncn2)c2ccc(F)cc2F)CC1", "note": "[Efinaconazole, ((2R,3R)-2-(2,4-difluorophenyl)-3-(4-methylenepiperidin-1yl)-1-(1H-1,2,4-triazol-1-yl)butan-2-ol)]", "values": [
      {"measurement": "effectiveness in vitro compared with other antifungal agents", "value": "more effective in vitro than terbinafine, itraconazole, ciclopirox and amorolfine"}
    ]}
  ]
}
